Results on one compound are retold here after US20250154611A1, “SYSTEMS AND METHODS TO DETECT STEM CELL STRESS AND USES THEREOF” (Wayne State University, priority 2014, published 2025).

Assay [1] has as its target T1, AKT (Mus musculus, UniProt P31750).
T1 construct: endogenous in cells; host or cells: mESC-D3 (ATCC)
Nature of the assay: phospho-AKT western blot in mESCs under 200 mM sorbitol. The assay is classed as cell-based. The conditions noted are these: 200 mM; persisted through 1 hr. As for the experimental part: FIG. 14. […] Blots are representative of triplicate experiments. Phospho-proteins and their loading controls are grouped between black lines.
FIG. 15. […] Blots are representative of triplicate experiments.
Hyperosmotic activation of signaling enzymes. […] Zhong, 2010; Xie, 2011. […] To determine the kinetics of activation of these five kinases in the described system, mESCs were treated with 200 mM sorbitol for 1 hr. Expression levels of the activated (i.e., phosphorylated) enzymes were assayed by western blot analysis (FIG. 14), including phospho-p38MAPK, phospho-JNK, phospho-MEK1/2, and phospho-AKT (the downstream effector of PI3K signaling).
Efficacy of enzyme inhibitors.
A general note: In western blotting, separated proteins are transferred to a membrane and probed.

Assay [2] relates to Rex1-RFP ESCs, Oct4-GFP ESCs. The assay is described as follows: Plate reader fluorescence of Rex1-RFP and Oct4-GFP reporter ESCs. The assay is classed as cell-based, mouse. The note with it: 3 days. The method, then: FIGS. 23A and 23B. Stress induces loss of Rex1-RFP but not Oct4-GFP after days of 200 mM sorbitol. Viable pluripotency reporter Rex1-RFP ESCs (FIG. 23A) or Oct4-GFP ESCs (FIG. 23B) were cultured in […] plates to 30% confluence. Cells were then treated with 200 mM of sorbitol as an osmotic stress for 3 days. Fluorescence was determined from live ESCs using a plate reader from 200 mM sorbitol treated cells was normalized with the non-sorbitol treated control cells. Four independent experiments were carried out and plotted here.
FIG. 24. Viable Rex1 promoter reporter responds with stress treatment in a dose-dependent manner in flow cytometry assay. mESCs expressing Rex1 promoter reporter were cultured in 12-well plates till 30% confluent. Cells were then treated with 200-300 mM of sorbitol in 25 mM increments for 3 days. After trypsinization cell suspensions were assayed by flow cytometry.
mESC culture and stimulation. […] Osmolality of ESC media with and without added 200 mM sorbitol was determined as in Example 2.
Fluorescence determination by plate reader of pluripotency reporters. mESCs that stably express Oct4-copGFP and/or Rex1-mApple promoter reporters were plated on 96-well plates at a starting confluence of 5%. Four identical plates were made for the time course study. Cells were grown for 24 hr in incubator till 10% confluence was reached; an addition of stimuli was designated time zero. The cells were stressed for a time period selected from 1, 2, or 3 days. At each time point, the medium was removed and the cells were rinsed with D-PBS. At 50 μl/well, ESCs were measured for fluorescence using the Synergy H1 microplate reader (BioTek, Winooski, VT). The excitation and detection wavelengths for Oct4-copGFP were 485 nm and 528 nm, respectively. The excitation and detection wavelengths for Rex1-mApple were 568 nm and 611 nm, respectively. After live-cell reading, the cells were lysed with 50 μL of lysis buffer (1% NP-40, 0.5% TX-100, 100 mM NaCl, 2 mM EDTA, 50 mM Tris-HCl, and pH 7.5) and measured for fluorescence with the same parameters above. After fluorescence determination, the cell lysates were further measured for total protein concentrations by adding 100 μl of Pierce BCA protein assay reagent (Thermo Scientific Inc.) following the manufacturer's instructions. Finally, the fluorescence readings from either live-cells or lysates were normalized to total protein concentration readings, in which higher readings represent higher pluripotency of the cells.

For assay [3], the system named is SAPK. The conditions noted are these: 100 mM, 20% O2, despite FGF4; cited from earlier work.

T1 sequence (P31750 whole entry): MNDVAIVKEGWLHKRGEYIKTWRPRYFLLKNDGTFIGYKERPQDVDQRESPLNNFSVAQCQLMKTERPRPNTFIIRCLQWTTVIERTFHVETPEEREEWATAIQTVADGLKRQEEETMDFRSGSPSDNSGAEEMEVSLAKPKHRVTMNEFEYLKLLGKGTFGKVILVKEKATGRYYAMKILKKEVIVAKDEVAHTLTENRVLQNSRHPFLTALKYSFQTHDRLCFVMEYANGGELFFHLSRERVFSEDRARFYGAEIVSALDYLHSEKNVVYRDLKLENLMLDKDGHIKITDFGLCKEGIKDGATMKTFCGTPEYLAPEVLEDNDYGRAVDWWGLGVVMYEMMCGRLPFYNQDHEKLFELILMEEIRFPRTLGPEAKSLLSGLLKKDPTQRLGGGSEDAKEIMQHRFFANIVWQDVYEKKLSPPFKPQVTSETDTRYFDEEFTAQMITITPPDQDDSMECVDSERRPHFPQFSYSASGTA

Take `OC[C@@H](O)[C@@H](O)[C@H](O)[C@@H](O)CO` [sorbitol]: the “time of increased AKT activation” value in assay [1] was in the range of 20 to 30 min. Also, in assay [2] (200 mM, LIF present), the Rex1-RFP fluorescence entry is recorded as “significant loss” and the “decrease in Rex1-RFP activity” value is on record as 20%. Further, in assay [2] (200 mM, vs non-sorbitol control), the Oct4-GFP fluorescence result was “not significantly different”. Also, the Rex1-RFP fluorescence result in assay [2] (all doses 200-300 mM in 25 mM increments) was “significant decrease”. The SAPK increase in assay [3] is 5 fold.
